Assay [1] relates to proliferating cell nuclear antigen (PCNA). The assay is described as follows: PCNA expression in skin. The note with it: sham-irradiated skin and UV-exposed skin. The assay is classed as in vivo, mouse. The procedure: It has been discovered that Erbb2 modulates the expression of genes important in both proliferation and apoptosis following UV exposure in vivo (Example 9). Accordingly, the influence of Erbb2 on both apoptosis and cell proliferation was assessed in order to determine the mechanisms of Erbb2's effect on hyperplasia in the skin after UV irradiation. Erbb2 suppresses UV-induced apoptosis in vitro, although the effect was slight (32). The percentage of TUNEL-positive basal cells was increased at 24 h after UV in vehicle-treated skin, consistent with previous observations in this animal model (13). […] Erbb2 reportedly suppresses keratinocyte differentiation (11), a process leading to keratinocyte death that is mechanistically and morphologically distinct from apoptosis. […] Mean proliferating cell nuclear antigen (PCNA) expression, a marker of cell proliferation, was less in Erbb2 inhibitor treated sham-irradiated skin and in UV-exposed skin when compared to the vehicle-treated controls.

A further assay deals with Tg.AC mice. The assay is described as follows: UV-induced epidermal hyperplasia in mouse skin. It counts as in vivo. The source says: Animals. Homozygous v-rasHa transgenic mice on an FVB/N background were used in in vivo experiments. To obtain keratinocytes with genetic ablation of Erbb2, loxP sites were inserted flanking exon 2 of Erbb2 such that splicing from exon1 to downstream introns upon Cre recombinase expression creates a frameshift mutation. Mice were maintained in our animal facility and provided with Purina lab chow (Nestle Purina PetCare, St. Louis, Mo.) and water ad libitum. The dorsal skin was clipped one day before treatment using electric clippers (Wahl, Sterling, II) and shaved on the day of treatment with a Remington Microscreen shaver (Madison, N.C.). […] The Ultraviolet-B TL 40W/12 RS bulbs (Philips, Somerset, N.J.) used emitted approximately 30% UVA, 70% UVB and <1% UVC, with a total output of 470 μW/cm^2, as measured with radiometric photodetector probes (Newport, Irvine, Calif.). For tumor experiments, homozygous Tg.AC mice were treated and exposed twice with an interval of 7 d. Tumor number was counted and tumor volume measured weekly using calipers. Skin-fold thickness was measured using calipers (Mitutoyo, Aurora, Ill.) to lightly pinch the dorsal skin. […]
The influence of Erbb2 on epidermal hyperplasia was measured during the first two weeks of the tumor experiment regimen. […]

The target of the next assay is T1, Erbb2 (Mus musculus, UniProt P70424).
T1 construct: endogenous in cells; host or cells: primary newborn mouse keratinocytes; also mouse epidermis/skin extracts
Put plainly: UV-induced activation (phosphorylation) of Erbb2. The assay is classed as cell-based. The source says:
For some experiments, the epidermis was separated from the skin by the heat shock method before homogenization. Keratinocytes were lysed in the same buffer. Membranes were immunoblotted with antibodies recognizing Erbb2, phospho-Erbb2 (Tyr^1248), EGFR, phospho-EGFR (Tyr^992), phospho-EGFR (Tyr^1173), phosphotyrosine, and Tall (Calbiochem, San Diego, Calif.). Binding of horseradish peroxidase-conjugated secondary antibodies (Cell Signaling, Beverly, Mass.) was visualized using chemiluminescent reagents (Pierce, Rockford, Ill.) and autoradiography. Densitometry was performed using IDScan software (Scanalytics, Fairfax, Va.).
Several methods were developed to regulate Erbb2 expression and activity both in vitro and in vivo.

Assay [2] deals with platelet-derived growth factor receptor kinase.
The test system of another assay is mice. Put plainly: Skin-fold thickness as a measure of UV-induced edema. It counts as in vivo, mouse. From the text:
Adult female CD-1 mice were maintained in our animal facility and provided with Purina lab chow (Nestlé Purina PetCare, St. Louis, Mo.) and water ad libitum. The dorsal skin was clipped one day before treatment and shaved with a Remington Microscreen shaver (Wahl, Sterling, II) on the day of treatment. […] UVB TL 40W/12 RS bulbs (Philips, Somerset, N.J.) were used that emitted approximately 30% UV-A, 70% UV-B and <1% UV-C, with a total output of 470 μW/cm^2, as measured with radiometric photodetector probes (Newport, Irvine, Calif.). Skin-fold thickness was measured using calipers to lightly pinch the dorsal skin. All animal procedures were approved by our Institutional Animal Care and Use Committee.

The next assay has as its system keratin 5, loricrin. Put plainly: Differentiation markers in UV-exposed skin. The note with it: inhibition prior to UV irradiation. It counts as in vivo, mouse.
For the next assay, the system named is skin. It counts as in vivo, mouse. The source says:
Real-Time PCR. Selected changes in gene expression were validated using real-time PCR. Sequences supplied by Affymetrix from the probe set of Il1 b (probe: 1449399_a_at), Mmp9 (probe: 1416298_at) and Thbs1 (probe: 1421811_at) were scanned for unique sequences using a stringent blast search (www.ncbi.nlm.nih.gov/BLAST). Sequences spanning exons were selected preferentially for probes and primers for prepared using Assays-by-Design (Applied Biosystems, Foster City, Calif.). Real-time PCR was performed using TaqMan One-Step RT-PCR Master Mix Reagents (Applied Biosystems, Foster City, Calif.) according to the manufacturer's instructions on an ABI Prism 7000 (Applied Biosystems, Foster City, Calif.). The relative efficiency of amplification of the selected gene versus control (GAPDH or actin) was plotted to ensure the slope of total RNA versus ΔCT was less than 0.05. The 2^−ΔΔC^T was used to determine fold-change differences between samples^25.

One compound from patent publication US20080119530A1, “Method for treatment and prevention of ultraviolet light induced skin pathologies” (priority 2006, published 2008) can be followed below.

T1 sequence (P70424 23-1256): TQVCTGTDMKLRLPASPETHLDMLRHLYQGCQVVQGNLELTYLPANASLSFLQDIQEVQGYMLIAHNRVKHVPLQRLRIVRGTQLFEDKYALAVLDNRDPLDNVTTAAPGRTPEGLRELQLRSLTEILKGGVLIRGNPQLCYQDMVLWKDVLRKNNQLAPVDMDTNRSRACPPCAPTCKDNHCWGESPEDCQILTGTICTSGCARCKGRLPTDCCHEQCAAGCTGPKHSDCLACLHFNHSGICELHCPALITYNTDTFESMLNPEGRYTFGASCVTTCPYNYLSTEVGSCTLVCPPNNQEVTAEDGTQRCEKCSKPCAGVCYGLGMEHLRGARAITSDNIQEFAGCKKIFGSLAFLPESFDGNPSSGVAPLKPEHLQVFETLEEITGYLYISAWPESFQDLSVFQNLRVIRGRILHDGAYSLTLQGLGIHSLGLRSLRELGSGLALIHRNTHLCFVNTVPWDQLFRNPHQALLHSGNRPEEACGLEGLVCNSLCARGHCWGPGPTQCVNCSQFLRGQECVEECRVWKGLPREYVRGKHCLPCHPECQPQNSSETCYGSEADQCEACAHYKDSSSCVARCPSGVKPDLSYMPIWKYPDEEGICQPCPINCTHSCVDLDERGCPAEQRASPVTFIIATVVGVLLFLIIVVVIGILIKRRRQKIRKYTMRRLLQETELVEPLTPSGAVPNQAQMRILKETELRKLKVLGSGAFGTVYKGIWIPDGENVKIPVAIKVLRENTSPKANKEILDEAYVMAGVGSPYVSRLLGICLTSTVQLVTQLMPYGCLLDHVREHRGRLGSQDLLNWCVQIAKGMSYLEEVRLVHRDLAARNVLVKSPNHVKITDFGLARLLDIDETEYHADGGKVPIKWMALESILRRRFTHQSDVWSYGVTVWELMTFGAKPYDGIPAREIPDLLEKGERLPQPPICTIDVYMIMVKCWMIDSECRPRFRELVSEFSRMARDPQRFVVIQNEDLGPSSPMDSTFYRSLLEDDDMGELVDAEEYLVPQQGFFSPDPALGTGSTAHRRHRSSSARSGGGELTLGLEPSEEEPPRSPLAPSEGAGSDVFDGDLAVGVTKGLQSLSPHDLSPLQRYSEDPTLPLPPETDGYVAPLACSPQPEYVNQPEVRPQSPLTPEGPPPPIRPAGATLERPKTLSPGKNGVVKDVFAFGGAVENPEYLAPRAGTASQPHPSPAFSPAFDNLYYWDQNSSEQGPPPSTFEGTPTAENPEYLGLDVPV

Turning to `COc1cc(/C=C(\C#N)C(N)=O)cc(CSc2nc3ccccc3s2)c1O` [AG825], the “mean PCNA expression vs vehicle-treated controls” value in assay [1] was “less”. The “effect on epidermal hyperplasia” value with Tg.AC mice (first week after UV irradiation) is listed as “minimal”. In addition, the epidermal hyperplasia entry with Tg.AC mice (following the second UV irradiation) is listed as “significantly suppressed”. In addition, the “duration of the inhibition of Erbb2” value at Erbb2 is “less than 24 h”. Moreover, the “activation of Erbb2 by UV” value on Erbb2 (both in vivo and in vitro) was “blocked”. In addition, on Erbb2 (cultured keratinocytes), the “UV-induced phosphorylation of Erbb2 at Tyr1248” value is “inhibited”. For the same compound, the “fold higher IC50 for platelet-derived growth factor receptor kinase than for Erbb2” value in assay [2] is reported as “more than 100 fold”. The “suppression of UV-induced edema (skin-fold thickness)” value in the assay with mice (4 d after UV exposure) stood at 33%; with mice (5 d after UV exposure), 37%; in the assay with mice (6 d after UV exposure), 64%. The “localization or expression of early (keratin 5) or late (loricrin) markers of differentiation” value with keratin 5, loricrin is “did not alter”. Besides, the “fold increase in Mmp9 expression” value in the assay with skin (24 h after UV exposure, qPCR) is reported as 1.3 fold. In addition, the “Thbs1 expression vs vehicle-treated mice” value in the assay with skin (24 h post-UV, real-time PCR) is “similar”. In addition, in the assay on skin (real-time PCR), the “Il1 b expression: fold greater increase after UV in vehicle-treated compared to AG825-treated samples” value was found to be 6 fold. Further, the “fold higher Thbs1 expression compared to corresponding control” value in the assay with skin (sham-irradiated skin, real-time PCR) is reported as 2 fold.
